Measurements reported in patent US20230233569A1 (Revolution Medicines, Inc., priority 2020, published 2023).

Columns and labels:
KRAS G12C = KRAS G12C (Homo sapiens, UniProt P01116+P62937, G12C); experiment: Ras-Raf disruption / FRET / MOA assay (BRAF RBD); type: biochemical; details: KRAS G12C FRET data IC50, Ras-Raf disruption, with Cyclophilin A
Method in brief: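 TR-FRET read-out after 1.5 h with anti-His Eu-W1024 (10 nM) and anti-GST APC (50 nM), following 3 h at 25 °C of compound (top 30 μM, 3-fold, 10 points) with 25 μM Cyclophilin A, 12.5 nM GMPPNP-loaded K-Ras G12C and 50 nM BRAF RBD; IC50 reported.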

AsPC-1 (K-Ras G12D) [1] = experiment: CellTiter-Glo cell viability assay; type: cell-based; details: Homo sapiens, ASPC1, 120 h, read-out: AsPC-1 Cell Viability assay data IC50, K-Ras G12D, 5-day treatment
Method in brief: (§1)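 Cells already in plates received compound by direct dispensing. After incubation to day 5, plates sat at room temperature roughly 30 minutes, then ATP-based luminescence was measured and values derived from a four-parameter fit of DMSO-normalized data.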

NCI-H358 (K-Ras G12C) = experiment: CellTiter-Glo cell viability assay; type: cell-based; details: Homo sapiens, NCI-H358, 120 h, read-out: H358 Cell Viability assay data IC50, K-Ras G12C, 5-day treatment
Method in brief: as §1

AsPC-1 (K-Ras G12D) [2] = experiment: Potency assay: pERK; type: cell-based; details: Homo sapiens, ASPC1, read-out: pERK EC50
NRAS G12C = NRAS G12C (Homo sapiens, UniProt P01111+P62937, G12C); experiment: Ras-Raf disruption / FRET / MOA assay (BRAF RBD); type: biochemical; details: NRAS G12C FRET data IC50, NRAS G12C
NRAS G12C, sequence (P01111 whole entry G12C): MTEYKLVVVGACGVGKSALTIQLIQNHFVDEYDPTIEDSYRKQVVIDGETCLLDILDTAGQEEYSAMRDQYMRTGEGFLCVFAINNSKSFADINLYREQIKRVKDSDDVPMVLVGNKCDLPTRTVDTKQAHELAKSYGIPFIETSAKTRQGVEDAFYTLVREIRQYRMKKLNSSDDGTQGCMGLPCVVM
NRAS G12C, sequence (P62937 whole entry): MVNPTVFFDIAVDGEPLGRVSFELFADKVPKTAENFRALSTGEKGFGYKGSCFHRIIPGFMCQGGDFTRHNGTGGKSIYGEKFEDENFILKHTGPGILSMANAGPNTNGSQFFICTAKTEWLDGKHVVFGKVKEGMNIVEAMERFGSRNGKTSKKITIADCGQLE
Method in brief: (§2)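 Compound-induced Ras–Cyclophilin A ternary complex disrupting BRAF RBD binding, read as IC50 from reduced TR-FRET ratio relative to DMSO. Final: Ras-GMPPNP 12.5 nM, BRAF RBD 50 nM, Cyclophilin A 25 μM, top compound 30 μM (3-fold, 10 points); 3 h at 25 °C, then 1.5 h with detection antibodies.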

KRAS G12V = KRAS G12V (Homo sapiens, UniProt P01116+P62937, G12V); experiment: Ras-Raf disruption / FRET / MOA assay (BRAF RBD); type: biochemical; details: KRAS G12V FRET data IC50, Ras-Raf disruption, with Cyclophilin A
KRAS G12V, sequence (P01116 1-169 isoform P01116-2 G12V limits assumed): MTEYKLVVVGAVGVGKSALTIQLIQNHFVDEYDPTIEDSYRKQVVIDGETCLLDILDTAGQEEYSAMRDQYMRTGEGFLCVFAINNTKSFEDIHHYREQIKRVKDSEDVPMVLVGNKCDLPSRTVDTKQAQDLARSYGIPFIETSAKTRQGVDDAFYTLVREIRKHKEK
KRAS G12V, sequence (P62937 whole entry): as the sequence (P62937 whole entry) above
Method in brief: as §2

KRAS Q61H = KRAS Q61H (Homo sapiens, UniProt P01116+P62937, Q61H); experiment: Ras-Raf disruption / FRET / MOA assay (BRAF RBD); type: biochemical
KRAS Q61H, sequence (P01116 1-169 isoform P01116-2 Q61H limits assumed): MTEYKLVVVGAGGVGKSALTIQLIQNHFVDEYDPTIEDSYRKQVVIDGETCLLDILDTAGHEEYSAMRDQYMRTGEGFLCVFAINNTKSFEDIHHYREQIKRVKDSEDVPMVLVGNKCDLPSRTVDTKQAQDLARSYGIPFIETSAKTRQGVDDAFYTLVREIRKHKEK
KRAS Q61H, sequence (P62937 whole entry): as the sequence (P62937 whole entry) above
Method in brief: as §2

NRAS Q61R = NRAS Q61R (Homo sapiens, UniProt P01111+P62937, Q61R); experiment: Ras-Raf disruption / FRET / MOA assay (BRAF RBD); type: biochemical
NRAS Q61R, sequence (P01111 whole entry Q61R): as the sequence (P01111 whole entry G12C) above, with C12G, Q61R counted along it
NRAS Q61R, sequence (P62937 whole entry): as the sequence (P62937 whole entry) above
Method in brief: as §2

NRAS Q61K = NRAS Q61K (Homo sapiens, UniProt P01111+P62937, Q61K); experiment: Ras-Raf disruption / FRET / MOA assay (BRAF RBD); type: biochemical
NRAS Q61K, sequence (P01111 whole entry Q61K): as the sequence (P01111 whole entry G12C) above, with C12G, Q61K counted along it
NRAS Q61K, sequence (P62937 whole entry): as the sequence (P62937 whole entry) above
Method in brief: as §2

KRAS G13C = KRAS G13C (Homo sapiens, UniProt P01116+P62937, G13C); experiment: Ras-Raf disruption / FRET / MOA assay (BRAF RBD); type: biochemical; details: KRAS G13C FRET data IC50, Ras-Raf disruption, with Cyclophilin A
KRAS G13C, sequence (P01116 1-169 isoform P01116-2 G13C limits assumed): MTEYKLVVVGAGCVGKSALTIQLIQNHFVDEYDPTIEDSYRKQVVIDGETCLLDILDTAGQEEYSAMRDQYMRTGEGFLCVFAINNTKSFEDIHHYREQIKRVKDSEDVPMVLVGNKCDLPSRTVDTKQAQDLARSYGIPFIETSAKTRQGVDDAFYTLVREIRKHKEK
KRAS G13C, sequence (P62937 whole entry): as the sequence (P62937 whole entry) above
Method in brief: as §2

KRAS WT = KRAS WT (Homo sapiens, UniProt P01116+P62937); experiment: Ras-Raf disruption / FRET / MOA assay (BRAF RBD); type: biochemical; details: KRAS WT FRET data IC50, Ras-Raf disruption, with Cyclophilin A
KRAS WT, sequence (P01116 1-169 isoform P01116-2 limits assumed): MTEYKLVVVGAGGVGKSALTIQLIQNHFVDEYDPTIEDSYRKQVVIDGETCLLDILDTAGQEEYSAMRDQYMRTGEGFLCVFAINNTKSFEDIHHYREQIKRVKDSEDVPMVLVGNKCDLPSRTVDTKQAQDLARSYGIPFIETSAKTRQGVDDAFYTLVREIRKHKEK
KRAS WT, sequence (P62937 whole entry): as the sequence (P62937 whole entry) above
Method in brief: as §2

KRAS G12D = KRAS G12D (Homo sapiens, UniProt P01116+P62937, G12D); experiment: Ras-Raf disruption / FRET / MOA assay (BRAF RBD); type: biochemical; details: KRAS G12D FRET data IC50, Ras-Raf disruption, with Cyclophilin A
KRAS G12D, sequence (P01116 1-169 isoform P01116-2 G12D limits assumed): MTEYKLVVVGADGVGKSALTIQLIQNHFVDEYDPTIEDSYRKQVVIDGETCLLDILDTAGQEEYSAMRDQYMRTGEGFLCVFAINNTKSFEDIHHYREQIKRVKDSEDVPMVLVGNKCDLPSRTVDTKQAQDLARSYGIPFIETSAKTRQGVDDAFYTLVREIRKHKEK
KRAS G12D, sequence (P62937 whole entry): as the sequence (P62937 whole entry) above
Method in brief: as §2

KRAS G12S = KRAS G12S (Homo sapiens, UniProt P01116+P62937, G12S); experiment: Ras-Raf disruption / FRET / MOA assay (BRAF RBD); type: biochemical; details: KRAS G12S FRET data IC50, Ras-Raf disruption, with Cyclophilin A
KRAS G12S, sequence (P01116 1-169 isoform P01116-2 G12S limits assumed): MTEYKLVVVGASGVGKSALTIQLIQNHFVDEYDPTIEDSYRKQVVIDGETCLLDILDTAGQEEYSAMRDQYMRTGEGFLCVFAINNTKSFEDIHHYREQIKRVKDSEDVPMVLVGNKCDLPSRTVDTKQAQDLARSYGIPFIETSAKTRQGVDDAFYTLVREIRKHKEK
KRAS G12S, sequence (P62937 whole entry): as the sequence (P62937 whole entry) above
Method in brief: as §2

KRAS G13D = KRAS G13D (Homo sapiens, UniProt P01116+P62937, G13D); experiment: Ras-Raf disruption / FRET / MOA assay (BRAF RBD); type: biochemical; details: KRAS G13D FRET data IC50, Ras-Raf disruption, with Cyclophilin A
KRAS G13D, sequence (P01116 1-169 isoform P01116-2 G13D limits assumed): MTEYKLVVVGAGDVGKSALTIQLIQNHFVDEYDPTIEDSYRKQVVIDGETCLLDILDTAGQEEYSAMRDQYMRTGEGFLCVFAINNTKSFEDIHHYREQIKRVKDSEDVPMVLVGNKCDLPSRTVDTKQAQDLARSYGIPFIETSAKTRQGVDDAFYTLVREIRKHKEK
KRAS G13D, sequence (P62937 whole entry): as the sequence (P62937 whole entry) above
Method in brief: as §2

NRAS WT = NRAS WT (Homo sapiens, UniProt P01111+P62937); experiment: Ras-Raf disruption / FRET / MOA assay (BRAF RBD); type: biochemical
NRAS WT, sequence (P01111 whole entry): as the sequence (P01111 whole entry G12C) above, with C12G counted along it
NRAS WT, sequence (P62937 whole entry): as the sequence (P62937 whole entry) above
Method in brief: as §2

KRAS G12C, sequence (P01116 1-169 isoform P01116-2 G12C limits assumed): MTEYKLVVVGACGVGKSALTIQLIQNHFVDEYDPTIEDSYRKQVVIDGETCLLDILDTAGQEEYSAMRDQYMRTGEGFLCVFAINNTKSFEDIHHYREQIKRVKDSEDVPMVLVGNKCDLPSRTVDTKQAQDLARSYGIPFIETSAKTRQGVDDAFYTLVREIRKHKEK
KRAS G12C, sequence (P62937 whole entry): as the sequence (P62937 whole entry) above

| SMILES | IC50 (KRAS G12C) [nM] | IC50 (AsPC-1 (K-Ras G12D) [1]) [nM] | IC50 (NCI-H358 (K-Ras G12C)) [nM] | EC50 (AsPC-1 (K-Ras G12D) [2]) [nM] | IC50 (NRAS G12C) [nM] | IC50 (KRAS G12V) [nM] | IC50 (KRAS Q61H) [nM] | IC50 (NRAS Q61R) [nM] | IC50 (NRAS Q61K) [nM] | IC50 (KRAS G13C) [nM] | IC50 (KRAS WT) [nM] | IC50 (KRAS G12D) [nM] | IC50 (KRAS G12S) [nM] | IC50 (KRAS G13D) [nM] | IC50 (NRAS WT) [nM] |
| --- | --- | --- | --- | --- | --- | --- | --- | --- | --- | --- | --- | --- | --- | --- | --- |
| CC[C@@H]1N[C@@H]1C(=O)N(C)CC(=O)N(C)[C@H](C(=O)N[C@H]1Cc2cc(O)cc(c2)-c2ccc3c(c2)c(c(-c2cccnc2[C@H](C)OC)n3CC)CC(C)(C)COC(=O)[C@@H]2CCCN(N2)C1=O)C(C)C [Example 263] | < 10 | 100 to 1000 | 10 to 100 | < 5000 | < 10 | 10 to 100 | 10 to 100 | 100 to 1000 | 100 to 1000 | 10 to 100 | 10 to 100 | 10 to 100 | 10 to 100 | 10 to 100 | 10 to 100 |
| CCn1c(-c2cccnc2[C@H](C)OC)c2c3cc(ccc31)-c1cc(O)cc(c1)C[C@H](NC(=O)[C@H](C(C)C)N(C)C(=O)CN(C)C(=O)[C@@H]1N[C@@H]1C(C)C)C(=O)N1CCC[C@H](N1)C(=O)OCC(C)(C)C2 [Example 264] | < 10 | 100 to 1000 | 10 to 100 | < 5000 | < 10 | 10 to 100 | < 10 | 10 to 100 | 10 to 100 | 10 to 100 | < 10 | 10 to 100 | < 10 | 10 to 100 | < 10 |
| CCn1c(-c2cccnc2[C@H](C)OC)c2c3cc(ccc31)-c1cc(O)cc(c1)C[C@H](NC(=O)[C@H](C(C)C)N(C)C(=O)CN(C)C(=O)[C@H]1N[C@H]1C(C)C)C(=O)N1CCC[C@H](N1)C(=O)OCC(C)(C)C2 [Example 265] | 10 to 100 | 100 to 1000 | 10 to 100 | < 5000 | 10 to 100 | 10 to 100 | 10 to 100 | 100 to 1000 | 100 to 1000 | 10 to 100 | 10 to 100 | 10 to 100 | 10 to 100 | 10 to 100 | 10 to 100 |
| CCn1c(-c2cccnc2[C@H](C)OC)c2c3cc(ccc31)-c1cc(O)cc(c1)C[C@H](NC(=O)[C@H](C(C)C)N(C)C(=O)CN(C)C(=O)[C@@H]1N[C@H]1C1COC1)C(=O)N1CCC[C@H](N1)C(=O)OCC(C)(C)C2 [Example 283] | 10 to 100 | 100 to 1000 | 10 to 100 | < 5000 | 10 to 100 | 10 to 100 | 10 to 100 | 100 to 1000 | 100 to 1000 | < 10 | 10 to 100 | 10 to 100 | 10 to 100 | 10 to 100 | 10 to 100 |
| CCn1c(-c2cccnc2[C@H](C)OC)c2c3cc(ccc31)-c1cc(O)cc(c1)C[C@H](NC(=O)[C@H](C(C)C)N(C)C(=O)CN(C)C(=O)[C@H]1N[C@H]1C(F)(F)F)C(=O)N1CCC[C@H](N1)C(=O)OCC(C)(C)C2 [Example 259] | 10 to 100 | 100 to 1000 | 10 to 100 | < 5000 | 10 to 100 | 10 to 100 | 10 to 100 | 100 to 1000 | 100 to 1000 | 10 to 100 | 10 to 100 | 100 to 1000 | 10 to 100 | 10 to 100 | 10 to 100 |
| CCn1c(-c2cccnc2[C@H](C)OC)c2c3cc(ccc31)-c1cc(O)cc(c1)C[C@H](NC(=O)[C@H](C(C)C)N(C)C(=O)CN(C)C(=O)[C@@H]1N[C@@H]1C1CCC1)C(=O)N1CCC[C@H](N1)C(=O)OCC(C)(C)C2 [Example 287] | 10 to 100 | 100 to 1000 | 10 to 100 | < 5000 | 10 to 100 | 10 to 100 | 10 to 100 | 100 to 1000 | 100 to 1000 | 10 to 100 | 10 to 100 | 10 to 100 | 10 to 100 | 100 to 1000 | 10 to 100 |
| CC[C@H]1N[C@H]1C(=O)N(C)CC(=O)N(C)[C@H](C(=O)N[C@H]1Cc2cc(O)cc(c2)-c2ccc3c(c2)c(c(-c2cccnc2[C@H](C)OC)n3CC)CC(C)(C)COC(=O)[C@@H]2CCCN(N2)C1=O)C(C)C [Example 262] | 10 to 100 | 100 to 1000 | 10 to 100 | < 5000 | 10 to 100 | 10 to 100 | 10 to 100 | 100 to 1000 | 100 to 1000 | 10 to 100 | 10 to 100 | 100 to 1000 | 10 to 100 | 10 to 100 | 10 to 100 |
| CCn1c(-c2cccnc2[C@H](C)OC)c2c3cc(ccc31)-c1cc(O)cc(c1)C[C@H](NC(=O)[C@H](C(C)C)N(C)C(=O)CN(C)C(=O)[C@]1(C)CN1)C(=O)N1CCC[C@H](N1)C(=O)OCC(C)(C)C2 [Example 257] | 10 to 100 | 100 to 1000 | 10 to 100 | < 5000 | 10 to 100 | 10 to 100 | 10 to 100 | 100 to 1000 | 100 to 1000 | < 10 | 10 to 100 | 100 to 1000 | 10 to 100 | 10 to 100 | 10 to 100 |
